IC50 data for nine compounds are collected here from patent US20170152269A1, “FUSED BICYCLIC COMPOUNDS AND THEIR USE AS CDK INHIBITORS” (priority 2016, published 2017).

Structures are written as SMILES.

One assay concerns the target T1, CDK4 (Homo sapiens, UniProt P11802).
T1 construct: purchased ThermoFisher (Waltham, Mass.)
Kind of assay: Lance TR-FRET kinase assay, CDK4. Format: biochemical. As to conditions: ATP 100 μM, 60 min, read-out: CDK 4 inhibitory activity (IC50). On the procedure:
Inhibitory activity of compounds against CDK1/2/4/5/6/7 was assessed using Lance TR-FRET assay kits from Perkin Elmer Life Sciences (Waltham, Mass.). CDK1/2/4/5/6/7 enzymes were purchased from ThermoFisher (Waltham, Mass.). […] Final concentrations of substrates and DMSO were 100 nM and 0.5%, respectively. Concentrations of ATP and different CDK enzymes were adjusted accordingly to achieve optimal enzymatic activities. Final CDK concentrations were 100, 500, 600, 100, 50, and 200 ng/well and ATP concentrations were 30, 50, 100, 20, 100, and 50 μM for CDK1/2/4/5/6/7, respectively. Assay plates were covered to protect from light and spun for 1 min at 700 RPM. Reactions were allowed to perform for 60 minutes in dark with gentle shaking at room temperature after which 5 μL of 40 mM EDTA in detection buffer was added to stop reactions followed 5 μL of the Eu labeled antibodies giving final concentrations of 2 nM to detect the phosphorylation of the peptide substrates. […] The percent of inhibition was calculated from the means of data points using the formula: 100−(Signalcompound−NoSignalbackground)*100/(Signalvehicle−NoSignalbackground). The IC50s were determined with GraphPad Prism by the non-linear sigmoidal curve fitting of data from 10 doses.
(In TR-FRET formats the signal depends on donor and acceptor labels being close together.)

For a further assay, the target named is T2, CDK6 (Homo sapiens, UniProt Q00534).
T2 construct: purchased ThermoFisher (Waltham, Mass.)
T2 sequence (Q00534 whole entry): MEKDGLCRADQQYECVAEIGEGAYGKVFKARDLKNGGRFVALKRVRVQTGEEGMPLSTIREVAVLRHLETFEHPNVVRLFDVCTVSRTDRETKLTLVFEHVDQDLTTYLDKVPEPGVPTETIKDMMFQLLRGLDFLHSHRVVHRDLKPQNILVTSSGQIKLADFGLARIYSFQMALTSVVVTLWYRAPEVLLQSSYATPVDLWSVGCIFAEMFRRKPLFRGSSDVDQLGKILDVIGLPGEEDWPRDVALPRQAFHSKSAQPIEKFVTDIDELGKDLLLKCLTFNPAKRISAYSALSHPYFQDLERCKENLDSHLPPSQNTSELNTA
T2 sequence (P24385 whole entry partner): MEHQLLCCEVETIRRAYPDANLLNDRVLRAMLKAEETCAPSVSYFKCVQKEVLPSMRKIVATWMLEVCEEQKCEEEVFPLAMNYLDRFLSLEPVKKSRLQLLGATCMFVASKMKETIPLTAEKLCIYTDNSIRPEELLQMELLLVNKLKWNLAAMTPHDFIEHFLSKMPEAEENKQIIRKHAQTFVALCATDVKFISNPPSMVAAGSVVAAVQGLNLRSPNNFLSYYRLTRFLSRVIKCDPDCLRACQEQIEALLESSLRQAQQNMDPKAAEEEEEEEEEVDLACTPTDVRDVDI
Kind of assay: Lance TR-FRET kinase assay, CDK6. Format: biochemical. On the procedure:
Time Resolved-Fluorescent Resonance Energy Transfer (TR-FRET) was used to determine inhibitory ability of compounds A1˜A19, B1s and B1˜B12 against the enzymatic activity of CDK1, CDK2, CDK4, CDK5, CDK6, CDK7, and CDK9.
Inhibitory activity of compounds against CDK1/2/4/5/6/7 was assessed using Lance TR-FRET assay kits from Perkin Elmer Life Sciences (Waltham, Mass.). CDK1/2/4/5/6/7 enzymes were purchased from ThermoFisher (Waltham, Mass.). 2.5 μL of compound solutions and 2.5 μL of enzyme solutions in kinase assay buffer, which was 50 mM HEPES (pH 7.5) with 1 mM EGTA, 1 mM MgCl2, 2 mM DTT, and 0.01% Tween-20, were added into a white OptiPlate-384 plate followed by adding 5 μL of fluorescently labeled peptide substrates (Ulight-4E-BP1 for CDK4/6 and Ulight-MBP for […]) and ATP mixture solutions. Final concentrations of substrates and DMSO were 100 nM and 0.5%, respectively. Concentrations of ATP and different CDK enzymes were adjusted accordingly to achieve optimal enzymatic activities. Final CDK concentrations were 100, 500, 600, 100, 50, and 200 ng/well and ATP concentrations were 30, 50, 100, 20, 100, and 50 μM for CDK1/2/4/5/6/7, respectively. Assay plates were covered to protect from light and spun for 1 min at 700 RPM. Reactions were allowed to perform for 60 minutes in dark with gentle shaking at room temperature after which 5 μL of 40 mM EDTA in detection buffer was added to stop reactions followed 5 μL of the Eu labeled antibodies giving final concentrations of 2 nM to detect the phosphorylation of the peptide substrates. Assay plates were read with the EnVision™ Multilabel Reader in TR-FRET mode (excitation at 320 nm and emission at 665 nm). The percent of inhibition was calculated from the means of data points using the formula: 100−(Signalcompound−NoSignalbackground)*100/(Signalvehicle−NoSignalbackground). The IC50s were determined with GraphPad Prism by the non-linear sigmoidal curve fitting of data from 10 doses.

T1 sequence (P11802 whole entry): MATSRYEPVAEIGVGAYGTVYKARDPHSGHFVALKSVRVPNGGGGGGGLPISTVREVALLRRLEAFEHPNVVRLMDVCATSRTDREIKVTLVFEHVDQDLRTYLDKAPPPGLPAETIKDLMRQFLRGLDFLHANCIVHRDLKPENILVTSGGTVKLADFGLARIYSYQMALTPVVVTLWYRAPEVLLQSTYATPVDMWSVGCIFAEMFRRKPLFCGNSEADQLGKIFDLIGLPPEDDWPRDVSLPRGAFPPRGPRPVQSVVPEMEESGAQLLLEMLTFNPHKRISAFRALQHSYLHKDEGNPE
T1 sequence (P24385 whole entry partner): as the sequence (P24385 whole entry partner) above

With `O=C(c1sc2cnc(Nc3ccc(N4CCNCC4)cn3)cc2c1C1CCCC1)N1CC(O)C1` [Compound A19, (3-cyclopentyl-5-((5-(piperazin-1-yl)pyridin-2-yl)amino)thieno[2,3-c]pyridin-2-yl)(3-hydroxyazetidin-1-yl)methanone], the half-maximal inhibitory concentration (IC50) (usually the point on the concentration scale where inhibition reaches its midpoint) on CDK4 turned out to be 0.022 µM; against CDK6, 0.018 µM.

Regarding `CN(C)C(=O)c1sc2cnc(Nc3ccc(N4CCNCC4)cn3)cc2c1C1CC2CC2C1` (stereo not drawn) [Compound A7, 3-(bicyclo[3.1.0]hexan-3-yl)-N,N-dimethyl-5-((5-(piperazin-1-yl)pyridin-2-yl)amino)thieno[2,3-c]pyridine-2-carboxamide], the IC50 at CDK4 turned out to be 0.0047 µM; at CDK6 it was 0.0064 µM.

For the compound `CC1(C)CN(C(=O)c2sc3cnc(Nc4ccc(N5CCNCC5)cn4)cc3c2C2CCCC2)C1` [Compound A18, (3-cyclopentyl-5-((5-(piperazin-1-yl)pyridin-2-yl)amino)thieno[2,3-c]pyridin-2-yl)(3,3-dimethylazetidin-1-yl)methanone], the IC50 was 0.06 µM on CDK4 and 0.262 µM against CDK6.

In the case of `CC(C)c1c(C(=O)N(C)C)sc2cnc(Nc3ccc(N4CCNCC4)cn3)cc12` [Compound A15, 3-isopropyl-N,N-dimethyl-5-((5-(piperazin-1-yl)pyridin-2-yl)amino)thieno[2,3-c]pyridine-2-carboxamide], the IC50 at CDK4 was determined as 0.0205 µM; against CDK6 it was 0.0107 µM.

In the case of `CN(C)C(=O)c1sc2cnc(Nc3ccc(N4CCNCC4)cn3)cc2c1C1CCC1` [Compound A4, 3-cyclobutyl-N,N-dimethyl-5-((5-(piperazin-1-yl)pyridin-2-yl)amino)thieno[2,3-c]pyridine-2-carboxamide], the figures for the IC50 on CDK4 and on CDK6 were 0.0046 µM and 0.0021 µM, respectively.

`CN(C)C(=O)c1sc2cnc(Nc3ccc(N4CCNCC4)cn3)cc2c1C1=CCCC1` [Compound A2, 3-(cyclopent-1-en-1-yl)-N,N-dimethyl-5-((5-(piperazin-1-yl)pyridin-2-yl)amino)thieno[2,3-c]pyridine-2-carboxamide]: the IC50 at CDK4 came out at 0.005 µM; against CDK6, 0.0023 µM.

Turning to `O=C(c1sc2cnc(Nc3ccc(N4CCNCC4)cn3)cc2c1C1CCCC1)N1CCCC1` [Compound A17, (3-cyclopentyl-5-((5-(piperazin-1-yl)pyridin-2-yl)amino)thieno[2,3-c]pyridin-2-yl)(pyrrolidin-1-yl)methanone], the IC50 on CDK4 is 0.012 µM; on CDK6, 0.02 µM.

`CN(C)C(=O)c1sc2cnc(Nc3ccc(N4CCNCC4)cn3)cc2c1C1CCOC1` (stereo not drawn) [Compound A13, N,N-dimethyl-5-((5-(piperazin-1-yl)pyridin-2-yl)amino)-3-(tetrahydrofuran-3-yl)thieno[2,3-c]pyridine-2-carboxamide]: the concentration for half-maximal inhibition (IC50) at CDK4 is 0.034 µM; against CDK6, 0.025 µM.

With `N#CC1CN(C(=O)c2sc3cnc(Nc4ccc(N5CCNCC5)cn4)cc3c2C2CCCC2)C1` [Compound A9, 1-(3-cyclopentyl-5-((5-(piperazin-1-yl)pyridin-2-yl)amino)thieno[2,3-c]pyridine-2-carbonyl) azetidine-3-carbonitrile], the IC50 on CDK4 came out at 0.0053 µM; against CDK6, 0.0033 µM.
